Question: For CC(=O)c1ccc(NC(=O)CI)cc1, which melting point is on record?
Answer: 139 to 141 °C

Question: For O=C1CCC(c2ccccc2)N1 (centres undefined), which melting point is on record?
Answer: 97 to 99 °C

Question: For O=C(O)Cn1ccnn1, which melting point is on record?
Answer: 214 to 216 °C

Question: With Nc1ccc2c(c1)CCC(=O)N2 as the compound, how does the melting point read?
Answer: 170 to 172 °C

Question: Which melting point does the source give for NC(C(=O)O)c1cccc(C(F)(F)F)c1 (centres undefined) here?
Answer: 192 to 194 °C

Question: For CS(=O)(=O)Nc1ccccc1I, which melting point is on record?
Answer: 96 to 98 °C

Question: For CN(C)c1ncnc(Cl)c1N, which melting point is on record?
Answer: 114 to 116 °C

Question: Which melting point does the source give for COc1ccc(C(C)=CC(=O)O)cc1 here?
Answer: 108 to 110 °C

Question: Which melting point does the source give for N#Cc1ccc(NC(N)=O)cc1 here?
Answer: 234 to 236 °C

Question: With Nc1onc(C2CCCC2)c1-c1ccc2c(c1)OCO2 as the compound, how does the melting point read?
Answer: 122 to 124 °C

Question: For Fc1ccc(CNc2nc3ccccc3s2)cc1, which melting point is on record?
Answer: 155 to 157 °C

Question: Which melting point does the source give for Cc1nn(Cc2ccc(Cl)cc2)c(O)c1C=O here?
Answer: 179 to 181 °C

Question: For O=Cc1ccc(Oc2ccc(Cl)cc2[N+](=O)[O-])cc1, which melting point is on record?
Answer: 69 to 71 °C

Question: With CC(NC(=O)OC(C)(C)C)C(N)=NO (centres undefined) as the compound, how does the melting point read?
Answer: 139 to 141 °C

Question: With Cn1cc(-c2ccc(F)c(C(=O)O)c2)cn1 as the compound, how does the melting point read?
Answer: 208 to 210 °C

Question: For CCOC(=O)C(C)(C#N)Cc1ccncc1 (centres undefined), which melting point is on record?
Answer: 56 to 58 °C

Question: For NC(=O)c1ccc(N2CCC(C(=O)O)CC2)nc1, which melting point is on record?
Answer: 284 to 286 °C

Question: With COc1ccc(Cl)cc1CC#N as the compound, how does the melting point read?
Answer: 51 to 55 °C

Question: Which melting point does the source give for COc1ccc2c(-c3ccccc3)cc(S)nc2c1 here?
Answer: 180 to 182 °C

Question: With O=C1NC(=O)C2(CCNCC2)N1 as the compound, how does the melting point read?
Answer: 240 to 250 °C

Question: Which melting point does the source give for Nc1nc(Cc2ccccc2)cs1 here?
Answer: 89 to 91 °C

Question: Which melting point does the source give for C=CC(=O)Nc1ccc(C(=O)O)cc1 here?
Answer: 246 to 248 °C

Question: For C/C(=N\O)c1scnc1C, which melting point is on record?
Answer: 144 to 146 °C

Question: With O=C(O)c1csc(-c2ncccn2)n1 as the compound, how does the melting point read?
Answer: 217 to 219 °C

Question: With CCN(CC)S(=O)(=O)c1ccc(OC)c(NC(=O)CCl)c1 as the compound, how does the melting point read?
Answer: 100 to 102 °C

Question: With O=Cc1cn(-c2ccc(Cl)c(Cl)c2)nn1 as the compound, how does the melting point read?
Answer: 175 to 177 °C

Question: With O=C(CCCc1cccs1)Nc1cccc(C(=O)O)c1 as the compound, how does the melting point read?
Answer: 198 to 200 °C

Question: Which melting point does the source give for C=CCNc1ncc(C(=O)O)s1 here?
Answer: 169 to 171 °C

Question: Which melting point does the source give for CCSc1cccc(C(=O)O)c1 here?
Answer: 95 to 97 °C

Question: For O=c1cccn[nH]1, which melting point is on record?
Answer: 94 to 98 °C

Question: With CCOC(=O)c1sc(N)c(C(=O)c2ccccc2)c1C as the compound, how does the melting point read?
Answer: 119 to 121 °C

Question: For O=C(O)/C(=C\c1ccccc1)c1ccc(Cl)cc1, which melting point is on record?
Answer: 179 to 183 °C

Question: For Cc1ccc(N)c2cccnc12, which melting point is on record?
Answer: 144 to 146 °C

Question: With Oc1ccc(-n2cccn2)cc1 as the compound, how does the melting point read?
Answer: 107 to 109 °C

Question: For O=C(O)C=CSCc1ccco1, which melting point is on record?
Answer: 119 to 121 °C

Question: With CCCOc1ccc(C=O)cc1OCC as the compound, how does the melting point read?
Answer: 36 to 38 °C

Question: Which melting point does the source give for Cc1cc(N)ccc1C(=O)OC(C)(C)C here?
Answer: 69 to 71 °C

Question: For OC1CCCCC1c1ccc(Cl)cc1 (centres undefined), which melting point is on record?
Answer: 83 to 85 °C

Question: For Nc1cccc(CN2CCSCC2)c1, which melting point is on record?
Answer: 87 to 89 °C

Question: For Cc1cccc(NC(=O)N2CCNCC2)c1, which melting point is on record?
Answer: 109 to 111 °C

Question: Which melting point does the source give for O=C(Nc1ccc2[nH]ccc2c1)c1ccc(F)cc1Br here?
Answer: 185 to 187 °C

Question: For CC(C)C1CNC(=O)C1 (centres undefined), which melting point is on record?
Answer: 98 to 100 °C

Question: For Clc1nc(C2CC2)nc2sc3c(c12)CCCC3, which melting point is on record?
Answer: 112 to 114 °C

Question: With O=C(O)c1cc(Br)c2c(c1)OCO2 as the compound, how does the melting point read?
Answer: 251 to 253 °C

Question: For CS(=O)(=O)c1ccc(NC(N)=O)cc1, which melting point is on record?
Answer: 224 to 226 °C

Question: For Cc1cccc(Nc2nnc(S)s2)c1C, which melting point is on record?
Answer: 195 to 197 °C

Question: With Clc1cc(Cl)cc(-c2noc(Cl)n2)c1 as the compound, how does the melting point read?
Answer: 67 to 69 °C

Question: With Clc1ccc2oc(C3CCNCC3)nc2c1 as the compound, how does the melting point read?
Answer: 86 to 88 °C

Question: With O=C(Nc1sc2ccccc2c1Cl)OCC(F)(F)F as the compound, how does the melting point read?
Answer: 95 to 97 °C

Question: Which melting point does the source give for CCOC(=O)COc1ccc(O)cc1 here?
Answer: 121 to 123 °C

Question: With Cc1ccc(C(C)(C)C(=O)O)cc1 as the compound, how does the melting point read?
Answer: 76 to 78 °C

Question: For N#Cc1ccc(I)c(C(F)(F)F)c1, which melting point is on record?
Answer: 100 to 102 °C

Question: With CN(C)C(=O)c1cc(F)c(NN)c(F)c1 as the compound, how does the melting point read?
Answer: 74 to 76 °C

Question: With CN(CC(=O)O)C(=O)c1ccsc1 as the compound, how does the melting point read?
Answer: 56 to 57 °C

Question: For CC(C)(C)OC(=O)N1CCN(C(N)=O)C(C(=O)O)C1 (centres undefined), which melting point is on record?
Answer: 158 to 160 °C

Question: For OC(CNCc1ccccc1)c1cccs1 (centres undefined), which melting point is on record?
Answer: 95 to 97 °C

Question: With CN(C)Cc1ccc(C(=N)N)cc1 as the compound, how does the melting point read?
Answer: 124 to 126 °C

Question: With Cc1ccc([N+](=O)[O-])c(C)c1S(=O)(=O)Cl as the compound, how does the melting point read?
Answer: 62 to 64 °C

Question: For Cn1cnnc1-c1ccccc1, which melting point is on record?
Answer: 114 to 116 °C

Question: For NCc1cc2c([nH]c1=O)CCC2, which melting point is on record?
Answer: 129 to 131 °C

Question: Which melting point does the source give for Nc1nc(CCCC(=O)O)cs1 here?
Answer: 89 to 91 °C

Question: For CSc1cccc(NC(=O)C(C)Cl)c1 (centres undefined), which melting point is on record?
Answer: 81 to 83 °C

Question: For CC(C)Oc1ccc(Cl)cc1C(=O)O, which melting point is on record?
Answer: 83 to 85 °C

Question: Which melting point does the source give for CC(C)(C)OC(=O)Nc1ccc(N)cn1 here?
Answer: 157 to 159 °C

Question: Which melting point does the source give for Cc1ccnc(S(N)(=O)=O)c1 here?
Answer: 163 to 165 °C

Question: With Cc1ccc(-c2nnc(C(C)Cl)o2)cc1 (centres undefined) as the compound, how does the melting point read?
Answer: < 17 °C

Question: Which melting point does the source give for NNC(=O)Nc1ccc(CCO)cc1 here?
Answer: 149 to 151 °C

Question: For NN=C1C(=O)Nc2c(Cl)cc(Cl)cc21, which melting point is on record?
Answer: 261 to 263 °C

Question: For CN(C)c1ccc(CCC(=O)O)cc1, which melting point is on record?
Answer: 105 to 107 °C

Question: With CN(CC(=O)O)S(=O)(=O)c1ccc2ccccc2c1 as the compound, how does the melting point read?
Answer: 172 to 174 °C

Question: With CC(C)(C)OC(=O)N1CCN(c2ncccc2C#N)CC1 as the compound, how does the melting point read?
Answer: 65 to 67 °C

Question: For OC1(c2ccccc2)CCC1, which melting point is on record?
Answer: 39 to 41 °C

Question: For Cc1ncc(C(=O)O)c(C(C)C)n1, which melting point is on record?
Answer: 168 to 170 °C

Question: With O=C(O)CCNc1ccccc1 as the compound, how does the melting point read?
Answer: 56 to 60 °C
